“Also recorded” adds a separate entry of the source.
Legend:
[1] = system: Peripheral Neuropathy in a Mouse Caused by Oxaliplatin; assay: Cold plate test (10° C.), peripheral neuropathy caused by oxaliplatin; assay type: in vivo, Balb/c mice; details: group receiving 6 mg/kg oxaliplatin only (i.p. Day 0, 7, 14), vs control group
Experimental: The preventive action of xylitol on hyperesthesia that occurs when an anticancer drug, oxaliplatin, was administered was examined. […] Xylitol was orally administered to a mouse simultaneously with the administration of oxaliplatin, and the following tests (cold plate test and von Frey test) were performed. Oxaliplatin is an anticancer drug classified as a platinum-containing drug. In all of the examples described below, a dosage (administered amount) (mg/kg) refers to the weight of the administered substance per kg body weight of the mouse.
Six to seven-week-old female Balb/c mice were used for the tests. All the mice were acclimated for seven days after arrival. Then, the mice were grouped into the following four groups: a control group, a group receiving oxaliplatin, and two groups receiving oxaliplatin and two different doses of xylitol (groups receiving oxaliplatin+xylitol). Each group consisted of nine mice.
(§1) On Day 8 of acclimation, the mice in the group receiving oxaliplatin and the groups receiving oxaliplatin+xylitol were intraperitoneally administered with oxaliplatin at a dose of 6 mg/kg. This day was designated as Day 0 of administration. Thereafter, these mice were intraperitoneally administered with oxaliplatin at a daily dose of 6 mg/kg on Day 7 and Day 14.
The mice in a first group receiving oxaliplatin and xylitol were orally administered with xylitol at a dose of 1 mg/kg daily from Day 0. The mice in a second group receiving oxaliplatin and xylitol were orally administered with xylitol at a dose of 5 mg/kg daily from Day 0.
(§2) A cold plate test was performed to examine the effect of xylitol on paresthesia that is caused by a low temperature stimulus. The mice in the four groups described in (1) of the present example (Example 1) were placed on a cold plate set at 10° C., and withdrawal response time (latent time) was measured. It is presumed that a shorter latent time reflects a greater degree of shunning the low temperature stimulus by the cold plate.
Six to seven-week-old female Balb/c mice were used for the tests as with Example 1. All the mice were acclimated for seven days after arrival. Then, the mice were grouped into the following five groups: a control group, a group receiving only oxaliplatin, and three groups receiving oxaliplatin and three different doses of xylitol. Each group consisted of seven mice.
(§3) On Day 8 of acclimation, the mice in the groups other than the control group were intraperitoneally administered with oxaliplatin at a dose of 6 mg/kg. This day was designated as the first day of the administration (Day 0). Thereafter, these mice were intraperitoneally administered with oxaliplatin at the same dose on Day 7 and Day 14 for a total of 3 doses.
The mice in a first group receiving oxaliplatin+xylitol were orally administered with xylitol at a dose of 5 mg/kg daily from Day 6 of administration. The mice in a second group receiving oxaliplatin+xylitol were orally administered with xylitol at a dose of 25 mg/kg daily from Day 6 of administration. The mice in a third group receiving oxaliplatin+xylitol were orally administered with xylitol at a dose of 100 mg/kg daily from Day 6 of administration. In this context, “Day 6 of administration” means that the number of days after administration is 6. The same applies hereinafter.
as §2, with “A” for “A cold plate”, “performed on the mice in the five groups described in (1) of the present example (Example 2)” for “performed”, “respective” for “the four”, “groups” for “groups described in (1) of the present example (Example 1)”
Six to seven-week-old female Balb/c mice were used for the tests as with Example 1. All the mice were acclimated for seven days after arrival. […]

[2] = system: Peripheral Neuropathy in a Mouse Caused by Oxaliplatin; assay: Von Frey test (0.16 g filament), peripheral neuropathy caused by oxaliplatin; assay type: in vivo, Balb/c mice; details: group receiving 6 mg/kg oxaliplatin only (i.p. Day 0, 7, 14), vs control group
Text: (§4) Six to seven-week-old female Balb/c mice were used for the tests as with Example 1. All the mice were acclimated for seven days after arrival. Then, the mice were grouped into the following four groups: a control group, a group receiving oxaliplatin, a group receiving D-threitol, and a group receiving oxaliplatin and D-threitol (a group receiving oxaliplatin+D-threitol). Each group consisted of five mice.
as §1, with “group” for “groups”, “oxaliplatin+D-threitol” for “oxaliplatin+xylitol”, “the first day” for “Day 0”, “the administration (Day 0).” for “administration.”
The mice in the group receiving D-threitol and the group receiving oxaliplatin+D-threitol were orally administered with D-threitol at a dose of 5 mg/kg daily from Day 0.
The mice in the four groups described in (1) of the present example (Example 3) were placed in a cage, and the avoidance response frequency (score) was measured by pressing a filament with a bending force of 0.16 g against the back of the hind paw.
as §3, with “group receiving oxaliplatin and” for “groups other than”, “the” for “the control”, “group receiving oxaliplatin+D-threitol” for “group”
The mice in the group receiving 100 mg/kg D-threitol were orally administered with D-threitol at a dose of 100 mg/kg daily from Day 0. The mice in the group receiving oxaliplatin+100 mg/kg D-threitol were orally administered with D-threitol at a dose of 100 mg/kg daily from Day 6 of administration.
For the mice in the four groups described in (1) of the present example (Example 4), the avoidance response frequency (score) was measured by pressing a filament with a bending force of 0.16 g against the back of the hind paw.
as §4, with “L-talitol,” for “D-threitol,”, “L-talitol” for “D-threitol”, “oxaliplatin+L-talitol).” for “oxaliplatin+D-threitol).”, “mice. […]” for “mice.”
The mice in the four groups described in (1) of the present example (Example 5) were placed in a cage, and the avoidance response frequency (score) was measured by pressing a filament with a bending force of 0.16 g against the back of the hind paw. […]

[3] = system: Diabetic Peripheral Neuropathy in a Mouse Induced by Streptozotocin; assay: Cold plate test (4° C.), diabetic peripheral neuropathy induced by streptozotocin; assay type: in vivo, C57BL/6J mice; details: group receiving streptozotocin only (200 mg/kg, Day 0 only), vs control group
Experimental: (§5) Six to seven-week-old male C57BL/6J mice were used for the tests as with Example 7. All the mice were acclimated for seven days after arrival. Then, the mice were grouped into the following four groups: a control group, a group receiving streptozotocin, a group receiving 1 mg/kg xylitol, and a group receiving streptozotocin+1 mg/kg xylitol. Each group consisted of nine mice.
(§6) The mice in the group receiving 1 mg/kg xylitol were orally administered with xylitol at a dose of 1 mg/kg daily from Day 0. The mice in the group receiving streptozotocin+1 mg/kg xylitol were orally administered with xylitol at a dose of 1 mg/kg daily from Day 21 of administration.
A cold plate test was performed to examine the effect due to xylitol on paresthesia that is caused by a low temperature stimulus. The mice in the four groups described in (1) of the present example (Example 8) were placed on a cold plate set at 4° C., and withdrawal response time (latent time) was measured. It is presumed that a shorter withdrawal response time (latent time) reflects a greater degree of shunning the low temperature stimulus by the cold plate. […]
(§7) On Day 8 of acclimation, the mice in the group receiving streptozotocin and the group receiving streptozotocin+5 mg/kg D-threitol were administered with streptozotocin at a dose of 200 mg/kg. A massive dose of streptozotocin destroys pancreatic cells in the mice. As a result, insulin is no longer secreted, and thus, diabetes can be developed in the mice. This day was designated as the first day of the administration (Day 0). Note that streptozotocin was administered only on the first day of administration.
(§8) The mice in the group receiving 5 mg/kg D-threitol and the group receiving streptozotocin+5 mg/kg D-threitol were orally administered with D-threitol at a dose of 5 mg/kg daily from Day 0. […]
The mice in the group receiving 5 mg/kg D-threitol were orally administered with D-threitol at a dose of 5 mg/kg daily from Day 0. The mice in the group receiving streptozotocin+5 mg/kg D-threitol were orally administered with D-threitol at a dose of 5 mg/kg daily from Day 21 of administration.
(§9) A cold plate test was performed to examine the effect of D-threitol on paresthesia that is caused by a low temperature stimulus. The mice in the four groups described in (1) of the present example (Example 10) were placed on a cold plate set at 4° C., and withdrawal response time (latent time) was measured. […]
as §9, with “L-talitol” for “D-threitol”, “11)” for “10)”

[4] = system: Diabetic Peripheral Neuropathy in a Mouse Induced by Streptozotocin; assay: Von Frey test (0.16 g filament), diabetic peripheral neuropathy induced by streptozotocin; assay type: in vivo, C57BL/6J mice; details: group receiving streptozotocin only (200 mg/kg, Day 0 only), vs control group
Experimental: as §7, with “streptozotocin+1” for “streptozotocin+5”, “xylitol” for “D-threitol”, “administration. […]” for “administration.”
as §5, §6
The mice in the four groups described in (1) of the present example (Example 8) were placed in a cage, and the avoidance response frequency (score) was measured by pressing a filament with a bending force of 0.16 g against the back of the hind paw. […]
as §7, §8
The mice in the group receiving 5 mg/kg D-threitol were orally administered with D-threitol at a dose of 5 mg/kg daily from Day 0. […]
The mice in the four groups described in (1) of the present example (Example 10) were placed in a cage, and the avoidance response frequency (score) was measured by pressing a filament with a bending force of 0.16 g against the back of the hind paw. […]
The mice in the four groups described in (1) of the present example (Example 11) were placed in a cage, and the avoidance response frequency (score) was measured by pressing a filament with a bending force of 0.16 g against the back of the hind paw. […]

| SMILES | withdrawal response time (latent time) [1] | avoidance response score [2] | withdrawal response time (latent time) [3] | avoidance response score [4] |
| --- | --- | --- | --- | --- |
| O=C1[O][Pt]2([NH][C@@H]3CCCC[C@H]3[NH]2)[O]C1=O [oxaliplatin, reference compound] | reduced from Day 3 to Day 6 of the test; also recorded: uniform reduction in the withdrawal response time | remarkable increase in the avoidance response score |  |  |
| CN(N=O)C(=O)N[C@H]1C(O)O[C@H](CO)[C@@H](O)[C@@H]1O (mixture of isomers) [streptozotocin, reference compound] |  |  | reduced from Day 7 | increased from Day 7 |

From US20240099989A1, “AGENT FOR PREVENTING OR IMPROVING PERIPHERAL NEUROPATHY” (KINKI UNIVERSITY, priority 2021, published 2024)
